Key:
Assay type in all cases: cell-based
[1] = system: Pseudomonas fluorescens; assay: Bactericidal activity of phenol oxidizing enzyme plus enhancing agent, surviving cells enumerated by Malthus (Examples 1 and 3); conditions: for Bactericidal activity (reduction in living cell number) / Bactericidal activity: 20 min, 40° C.; for Cell reduction: enhancing agent 0.2 mM, hydrogen peroxide 0.5 mM, rCiP 3 POXU/ml, total kill
Method: (§1) Antimicrobial activity was evaluated in 0.05 M MES-buffer (Sigma M8250) (pH 6) or 0.05 HEPES-buffer (Sigma H3375) (pH 8); buffers were sterilised by filter sterilisation. The antimicrobial activity was determined against Pseudomonas fluorescens (Gram et al. 1990, International Journal of Food Microbiology 10: 303-316) and Staphylococcus epidermidis (DSM 20042). Cells were grown in Tryptone Soya Broth (Oxoid CM129) at 30° C. (S. epidermidis) or 25° C. (P. fluorescens) for 24 h and diluted in the MES-buffer to a final cell concentration of approximately 10^6 cfu/ml. The cell suspensions were mixed with rCiP (3 POXU/ml), enhancing agent (0.2 mM) and hydrogen peroxide (0.5 mM) for 20 min at 40° C. The bactericidal activity was determined by incubation in Malthus. Detection times measured by the Malthus instrument were converted to cfu/ml by a calibration curve. Either direct or Indirect Malthus measurements were used when enumerating total survival cells (Malthus Flexi M2060, Malthus Instrument Limited). By the direct measurements, the cell metabolism was determined by conductance measurements in the growth substrate. By the indirect measurements, 3 ml of growth medium was transferred to the outer chamber of the indirect Malthus cells, and 0.5 ml of sterile KOH (0.1 M) was transferred to the inner chamber. The cell suspensions were after enzyme treatment transferred to the outer chamber of the Malthus cell. As cells are growing in the outer chamber they produce CO2 which will dissolve in the KOH in the inner chamber and thereby change the conductance of the KOH. The amount of CO2 formed by the respiring cells surviving the enzyme treatment was used for estimating the number of viable cells. When the conductance change is measurable by the Malthus, a detection time (dt) will be recorded. The dt's were converted to colony counts by use of a calibration curve relating cfu/ml to dt (Johansen et al. 1995. Journal of Applied Bacteriology 78:297-303, Johansen et al. 1997, Applied and Environmental Microbiology 63:3724-3728). Antibacterial activity of Coprinus cinereus peroxidase (rCiP), Polyporus pinsitus laccase (rPpL), Coprinus cinereus laccase (rCcL) and Rhizoctonia solani laccase (rRsL) (as described in WO 95/07988) was determined with different enhancing agents at pH 6 and 8 (buffers; see Example 1). The rCiP was combined with 0.5 mM hydrogen peroxide. Antimicrobial activity of rCiP and rPpL was determined against Pseudomonas fluorescens (Gram et al. 1990, International Journal of Food Microbiology 10:303-316), whereas antimicrobial activity of rCcL and rRsL was determined against Pseudomonas aeruginosa (ATCC 10145). The bactericidal activity was determined as described in example 1. The results are shown as the reduction in living cell number. Thus, a reduction of 4 correspond to a 4 log reduction of living cells e.g. from 10^6 CFU/ml to 10^2 CFU/ml.

[2] = system: Pseudomonas aeruginosa (ATCC 10145); assay: Bactericidal activity of laccase plus enhancing agent, surviving cells enumerated by Malthus (Examples 2 and 3)
Method: as §1, with “The antimicrobial” for “Antimicrobial activity was evaluated in 0.05 M MES-buffer (Sigma M8250) (pH 6) or 0.05 HEPES-buffer (Sigma H3375) (pH 8); buffers were sterilised by filter sterilisation. The antimicrobial”, “activity of Polyporus pinsitus laccase (rPpL), obtained as described in WO 96/00290), and Coprinus cinereus laccase (rCcL), obtained as described in WO 97/08325, was determined with N-hydroxyacetanilide as enhancing agent against Pseudomonas aeruginosa (ATCC 10145), Enterobacter aerogenes (ATCC 13048) and Enterococcus faecalis (DSM 2570). The bactericidal activity was determined as described in Example 1, the antimicrobial activity of rPpL (1 mg/L) was evaluated at pH 6, whereas rCcL (1 mg/L) was evaluated at pH 8. Antibacterial activity of Coprinus cinereus” for “activity of Coprinus cinereus”

[3] = system: Enterococcus faecalis (DSM 2570); assay: Bactericidal activity of laccase plus N-hydroxyacetanilide, Malthus (Example 2); conditions: 20 min, 40° C.
Method: (§2) The antimicrobial activity was determined against Pseudomonas fluorescens (Gram et al. 1990, International Journal of Food Microbiology 10: 303-316) and Staphylococcus epidermidis (DSM 20042). Cells were grown in Tryptone Soya Broth (Oxoid CM129) at 30° C. (S. epidermidis) or 25° C. (P. fluorescens) for 24 h and diluted in the MES-buffer to a final cell concentration of approximately 10^6 cfu/ml. The cell suspensions were mixed with rCiP (3 POXU/ml), enhancing agent (0.2 mM) and hydrogen peroxide (0.5 mM) for 20 min at 40° C. The bactericidal activity was determined by incubation in Malthus. Detection times measured by the Malthus instrument were converted to cfu/ml by a calibration curve. Either direct or Indirect Malthus measurements were used when enumerating total survival cells (Malthus Flexi M2060, Malthus Instrument Limited). By the direct measurements, the cell metabolism was determined by conductance measurements in the growth substrate. By the indirect measurements, 3 ml of growth medium was transferred to the outer chamber of the indirect Malthus cells, and 0.5 ml of sterile KOH (0.1 M) was transferred to the inner chamber. The cell suspensions were after enzyme treatment transferred to the outer chamber of the Malthus cell. As cells are growing in the outer chamber they produce CO2 which will dissolve in the KOH in the inner chamber and thereby change the conductance of the KOH. The amount of CO2 formed by the respiring cells surviving the enzyme treatment was used for estimating the number of viable cells. When the conductance change is measurable by the Malthus, a detection time (dt) will be recorded. The dt's were converted to colony counts by use of a calibration curve relating cfu/ml to dt (Johansen et al. 1995. Journal of Applied Bacteriology 78:297-303, Johansen et al. 1997, Applied and Environmental Microbiology 63:3724-3728). Antibacterial activity of Polyporus pinsitus laccase (rPpL), obtained as described in WO 96/00290), and Coprinus cinereus laccase (rCcL), obtained as described in WO 97/08325, was determined with N-hydroxyacetanilide as enhancing agent against Pseudomonas aeruginosa (ATCC 10145), Enterobacter aerogenes (ATCC 13048) and Enterococcus faecalis (DSM 2570). The bactericidal activity was determined as described in Example 1, the antimicrobial activity of rPpL (1 mg/L) was evaluated at pH 6, whereas rCcL (1 mg/L) was evaluated at pH 8.

[4] = system: Enterobacter aerogenes (ATCC 13048); assay: as above; conditions: for Bactericidal activity (dose-response): 20 min, 40° C.
Method: as §2

[5] = rCiP = 3 POXU/ml + 0.5 mM hydrogen peroxide, pH 6
[6] = rCiP = 3 POXU/ml + 0.5 mM hydrogen peroxide, pH 8
[7] = rCcL = 5 mg/L, pH 6, 20 min, 40° C.
[8] = rCcL = 5 mg/L, pH 8, 20 min, 40° C.
[9] = rRsL = 5 mg/L, pH 6, 20 min, 40° C.
[10] = rRsL = 5 mg/L, pH 8, 20 min, 40° C.
[11] = rPpL 1 mg/L, pH 6, high concentration of N-hydroxyacetanilide

Structure (SMILES): CC(=O)c1ccc(N(O)C(C)=O)cc1 [N1-(4-acetylphenyl)-N1-hydroxyacetamide]
- Bactericidal activity (reduction in living cell number) [1, 5]: 1.2 log CFU/ml

Structure (SMILES): CC(=O)N(O)c1ccc(C#N)cc1 [N1-(4-cyanophenyl)-N1-hydroxyacetamide]
- Bactericidal activity (reduction in living cell number) ([1]; rPpL = 5 mg/L, pH 6): 1.7 log CFU/ml

Structure (SMILES): CC(=O)N(O)c1ccc(O)cc1 [N1-(4-hydroxyphenyl)-N1-hydroxyacetamide]
- Bactericidal activity (reduction in living cell number) [1, 5]: 3.7 log CFU/ml
- Bactericidal activity (reduction in living cell number) [1, 6]: 1.1 log CFU/ml

Structure (SMILES): CC(=O)N(O)c1cccc([N+](=O)[O-])c1 [N1-hydroxy-N1-(3-nitrophenyl)acetamide]
- Bactericidal activity (reduction in living cell number) [1, 5]: 1.5 log CFU/ml
- Bactericidal activity (reduction in living cell number) [1, 6]: 1.1 log CFU/ml
- Bactericidal activity (reduction in living cell number) ([1]; rPpL = 5 mg/L, pH 6): 1.6 log CFU/ml

Structure (SMILES): CC(=O)N(O)c1ccc([N+](=O)[O-])cc1 [N1-hydroxy-N1-(4-nitrophenyl)acetamide]
- Bactericidal activity (reduction in living cell number) [1, 5]: 4.2 log CFU/ml
- Bactericidal activity (reduction in living cell number) [1, 6]: 1.2 log CFU/ml
- Bactericidal activity (reduction in living cell number) ([1]; rPpL = 5 mg/L, pH 6): 6.7 log CFU/ml
- Bactericidal activity (reduction in living cell number) ([1]; rPpL = 5 mg/L, pH 8): 1.7 log CFU/ml

Structure (SMILES): N#Cc1ccc(C(=O)N(O)c2ccccc2)cc1 [N1-hydroxy-N1-phenyl-4-cyanobenzamide]
- Bactericidal activity (reduction in living cell number) [1, 5]: 6.1 log CFU/ml
- Bactericidal activity (reduction in living cell number) [1, 6]: 2.1 log CFU/ml
- Bactericidal activity (reduction in living cell number) ([1]; rPpL = 5 mg/L, pH 6): 2.5 log CFU/ml
- Bactericidal activity (reduction in living cell number) [2, 7]: 3.5 log CFU/ml
- Bactericidal activity (reduction in living cell number) [2, 8]: 6.5 log CFU/ml
- Bactericidal activity (reduction in living cell number) [2, 9]: 3.5 log CFU/ml
- Bactericidal activity (reduction in living cell number) [2, 10]: 6.5 log CFU/ml

Structure (SMILES): COc1ccc(C(=O)N(O)c2ccccc2)cc1 [N1-hydroxy-N1-phenyl-4-methoxybenzamide]
- Bactericidal activity (reduction in living cell number) [1, 5]: 4.1 log CFU/ml
- Bactericidal activity (reduction in living cell number) ([1]; rPpL = 5 mg/L, pH 8): 4.8 log CFU/ml
- Bactericidal activity (reduction in living cell number) [2, 7]: 5.9 log CFU/ml
- Bactericidal activity (reduction in living cell number) [2, 8]: 6.3 log CFU/ml
- Bactericidal activity (reduction in living cell number) [2, 9]: 3.8 log CFU/ml
- Bactericidal activity (reduction in living cell number) [2, 10]: 4.6 log CFU/ml

Structure (SMILES): O=C(c1ccc([N+](=O)[O-])cc1)N(O)c1ccccc1 [N1-hydroxy-N1-phenyl-4-nitrobenzamide]
- Bactericidal activity (reduction in living cell number) [1, 6]: 1.4 log CFU/ml

Structure (SMILES): CC(=O)N(O)c1ccccc1 [N-hydroxyacetanilide]
- Bactericidal activity ([1]; combined system: enhancing agent 0.2 mM, hydrogen peroxide 0.5 mM and rCiP 3 POXU/ml): total kill
- Cell reduction ([1]; pH 6): approximately 10^6 CFU/ml
- Cell reduction ([1]; pH 8): approximately 10^6 CFU/ml
- Bactericidal activity ([1]; enhancing agent (0.2 mM) combined with hydrogen peroxide (0.5 mM), no enzyme): No bactericidal activity
- Bactericidal activity ([1]; enhancing agent alone (0.2 mM), no enzyme, no hydrogen peroxide): No bactericidal activity
- Bactericidal activity (dose-response) ([3]; rCcL 1 mg/L, pH 8): significant bactericidal activity
- Bactericidal activity (dose-response) ([3]; rPpL 1 mg/L, pH 6): significant bactericidal activity
- Bactericidal activity (dose-response) ([4]; rCcL 1 mg/L, pH 8): significant bactericidal activity
- Bactericidal activity (dose-response) ([4]; rPpL 1 mg/L, pH 6): significant bactericidal activity
- Bactericidal activity at high concentration of enhancing agent [4, 11]: total kill
- Enhancing agent concentration at which bactericidal activity was obtained ([2]; combined with laccase (rPpL or rCcL, 1 mg/L), 20 min, 40° C.): above 200 μM
- Bactericidal activity (dose-response) ([2]; rCcL 1 mg/L, pH 8, 20 min, 40° C.): significant bactericidal activity
- Bactericidal activity (dose-response) ([2]; rPpL 1 mg/L, pH 6, 20 min, 40° C.): significant bactericidal activity
- Bactericidal activity at high concentration of enhancing agent [2, 11]: total kill

— patent publication US6592867B2, “Antimicrobial composition containing an oxidoreductase and an enhancer of the N-hydroxyanilide-type” (Novozymes A/S, priority 1998, dated 2003)
